Consider one molecule from patent US20140010939A1, “Sweetness Enhancers, Sweetener Compositions, Methods of Making the Same and Consumables Containing the Same” (Nutrinova Nutrition Specialties & Food Ingredients GmbH, priority 2011, published 2014).

A short description of this data set: Solubility assessment in buffer (visual check by two persons). It counts as physicochemical. The method, then:
20 μmol (8.96 mg) of the compound of formula (Ia) were used for samples preparation. The samples were partitioned into two portions for each buffer system and placed into 1.6 ml glass vials. To each of the vials 100 μl of the respective buffer solution was added to prepare the 100 mM samples. All Samples were thoroughly sonicated and vortexed to yield homogenous solutions or suspensions. The resulting set of samples consisted of • Compound of formula (Ia)—100 mM, buffer 3.0 • Compound of formula (Ia)—100 mM, buffer 6.5
In a second step from each of the prior listed samples 7.5 μl were pipetted into 1.6 ml glass vials followed by addition of 142.5 μl of the respective buffer solution. The resulting set of samples consisted of: • Compound of formula (Ia)—5 mM, buffer 3.0 • Compound of formula (Ia)—5 mM, buffer 6.5
In a third step, after sonication and vortexing to yield homogenous solutions or suspensions, 25 μl from each of the samples listed above were pipetted into 1.6 ml glass vials followed by addition of 100 μl of the respective buffer solution. The resulting set of samples consisted of: • Compound of formula (Ia)—1 mM, buffer 3.0 • Compound of formula (Ia)—1 mM, buffer 6.5
After the preparation of all 6 samples, the entire set was sonicated and vortexed again.
Afterwards the set of 6 samples was placed into a deep freezer and stored at −22° C. for 72 h. After that period, the samples were thawed, sonicated, and vortexed.
In a final step the set of 6 samples was placed into a dark box at 23° C. for 72 h. After that period, the samples were sonicated, and vortexed.
The results of the solubility study are documented in three tables. Three categories for the state of solution are in generally used: “Yes”, “Incomplete” and “No”. The category “Yes” is only used in case of a clear flawless solution. The category “Incomplete” is used in case of a visible strong reduction of undissolved matter. The category “No” was used for all other cases.

Structures are written as SMILES.

Consider `CC(=O)N(O)CCCCCNC(=O)C(O)(CC(=O)O)CC(=O)NCCCN(O)C(C)=O` (stereo not shown) [compound of formula (Ia)], for which the Dissolved after freezing/thawing result (1 mM, buffer 3.0, after −22° C. for 72 h and thawing) is on record as “yes”; the Dissolved after freezing/thawing entry (1 mM, buffer 6.5, after −22° C. for 72 h and thawing) is “yes”; the Dissolved after freezing/thawing entry (5 mM, buffer 3.0, after −22° C. for 72 h and thawing) is recorded as “yes”; the Dissolved after freezing/thawing entry (5 mM, buffer 6.5, after −22° C. for 72 h and thawing) is given as “yes”; the Dissolved after freezing/thawing entry (100 mM, buffer 3.0, after −22° C. for 72 h and thawing) was “yes”; the Dissolved after freezing/thawing entry (100 mM, buffer 6.5, after −22° C. for 72 h and thawing) was “yes”. For the same molecule, the “Dissolved after three days at room temperature” value reads like this: (1 mM, buffer 3.0, dark box at 23° C. for 72 h) “yes”; (1 mM, buffer 6.5, dark box at 23° C. for 72 h) “yes”; (5 mM, buffer 3.0, dark box at 23° C. for 72 h) “yes”; (5 mM, buffer 6.5, dark box at 23° C. for 72 h) “yes”; (100 mM, buffer 3.0, dark box at 23° C. for 72 h) “yes”; (100 mM, buffer 6.5, dark box at 23° C. for 72 h) “yes”. The Immediately dissolved entry (1 mM, buffer 3.0, directly after sample preparation) is reported as “yes”; the Immediately dissolved entry (1 mM, buffer 6.5, directly after sample preparation) is “yes”; the Immediately dissolved result (5 mM, buffer 3.0, directly after sample preparation) was “yes”; the Immediately dissolved entry (5 mM, buffer 6.5, directly after sample preparation) is given as “yes”; the Immediately dissolved result (100 mM, buffer 3.0, directly after sample preparation) is reported as “yes”; the Immediately dissolved result (100 mM, buffer 6.5, directly after sample preparation) is recorded as “yes”. Also, under “summary: 1, 5 and 100 mM in water with buffer at pH 3.0 and 6.5”, the “Solubility (overall)” value is “immediately dissolved at all conditions”.
